Test results as given in ChEMBL document CHEMBL1201862, “PubChem BioAssay data set” (2004).
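Results reflect a 48-hour exposure of cells in 96-well plates to compound at five concentrations. GI50 marks 50% less growth.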 Activity calls are given as the source filed them. Rule as the data show it: active = GI50 up to about 1.1 µM and inactive = higher.

Assays:
Assay in all cases: NCI anticancer screen, dose series, 48 h
T47D = tested on: T47D
SW-620 = tested on: SW-620
SK-OV-3 = tested on: SK-OV-3
MOLT-4 = tested on: MOLT-4
K562 = tested on: K562
MDA-MB-231 = tested on: MDA-MB-231
NCI/ADR-RES = tested on: NCI/ADR-RES
OVCAR-8 = tested on: OVCAR-8
HCC 2998 = tested on: HCC 2998
EKVX = tested on: EKVX
NCI-H23 = tested on: NCI-H23
MDA-MB-435 = tested on: MDA-MB-435
OVCAR-5 = tested on: OVCAR-5
DU-145 = tested on: DU-145
HL-60 = tested on: HL-60
U-251 = tested on: U-251
786-0 = tested on: 786-0
UACC-62 = tested on: UACC-62
UO-31 = tested on: UO-31
SK-MEL-28 = tested on: SK-MEL-28

Measured: GI50

COc1cc(/C=C2\C[C@H]3[C@@H]4CC=C5C[C@@H](OC(C)=O)CC[C@]5(C)[C@H]4CC[C@]3(C)\C2=N\O)cc(OC)c1OC
inactive: T47D 1.64 µM | SW-620 7 µM | SK-OV-3 25.5 µM | MOLT-4 2.36 µM | K562 4.27 µM | MDA-MB-231 15.1 µM | NCI/ADR-RES 3.78 µM | OVCAR-8 4.29 µM | HCC 2998 16 µM | EKVX 4.71 µM | NCI-H23 5.7 µM | MDA-MB-435 3.82 µM | OVCAR-5 15 µM | DU-145 4.42 µM | HL-60 2.88 µM | U-251 7.41 µM | 786-0 5.08 µM | UACC-62 6.73 µM | UO-31 3.86 µM | SK-MEL-28 5.58 µM

Nc1ncn([C@H]2C[C@H](O)[C@@H](CO)O2)c(=O)n1 [DECITABINE]
inactive: T47D 10.4 µM | SW-620 29 µM | SK-OV-3 76.2 µM | MOLT-4 11.6 µM | K562 18.7 µM | MDA-MB-231 17.8 µM | NCI/ADR-RES > 347 µM | OVCAR-8 16.9 µM | HCC 2998 105 µM | EKVX 104 µM | NCI-H23 118 µM | MDA-MB-435 2.49 µM | OVCAR-5 106 µM | DU-145 8.79 µM | HL-60 > 24.8 µM | U-251 102 µM | 786-0 9.42 µM | UACC-62 83.8 µM | UO-31 298 µM | SK-MEL-28 97.3 µM

Cc1ccc([S+]([O-])c2sccc2C=O)cc1 (stereo unspecified)
inactive: T47D 43.7 µM | SW-620 24.2 µM | SK-OV-3 > 100 µM | MOLT-4 21.3 µM | K562 48.6 µM | MDA-MB-231 26.4 µM | NCI/ADR-RES 26.5 µM | OVCAR-8 23.1 µM | HCC 2998 32.7 µM | EKVX 26.2 µM | NCI-H23 30.8 µM | MDA-MB-435 24.7 µM | OVCAR-5 49.2 µM | DU-145 54.3 µM | HL-60 21 µM | U-251 18.9 µM | 786-0 32.1 µM | UACC-62 19.3 µM | UO-31 70.1 µM | SK-MEL-28 29.2 µM

C[n+]1cn(-c2ccc([N+](=O)[O-])cn2)c2ccccc21
inactive: T47D > 100 µM | SW-620 > 100 µM | SK-OV-3 > 100 µM | MOLT-4 > 100 µM | K562 > 100 µM | MDA-MB-231 > 100 µM | NCI/ADR-RES > 100 µM | OVCAR-8 > 100 µM | HCC 2998 > 100 µM | EKVX > 100 µM | NCI-H23 > 100 µM | MDA-MB-435 > 100 µM | OVCAR-5 > 100 µM | DU-145 > 100 µM | HL-60 > 100 µM | U-251 > 100 µM | 786-0 > 100 µM | UACC-62 > 100 µM | UO-31 > 100 µM | SK-MEL-28 > 100 µM

CCCCCOc1ccc(NC2=C(Cl)C(=O)c3c(O)ccc(O)c3C2=O)cc1
inactive: T47D 2.76 µM | SW-620 3.87 µM | SK-OV-3 > 10 µM | MOLT-4 3.7 µM | K562 3.27 µM | MDA-MB-231 3.35 µM | NCI/ADR-RES 6.04 µM | OVCAR-8 2.99 µM | HCC 2998 2.65 µM | EKVX > 10 µM | NCI-H23 3.27 µM | MDA-MB-435 2.24 µM | OVCAR-5 > 10 µM | DU-145 > 10 µM | HL-60 1.37 µM | U-251 6.38 µM | 786-0 1.6 µM | UACC-62 5.42 µM | UO-31 5.26 µM | SK-MEL-28 2.84 µM

C=C(C[C@@H](O)[C@H](C)NC(=O)OCc1ccccc1)C(=O)OC(C)(C)C
inactive: T47D 13.1 µM | SW-620 39.7 µM | SK-OV-3 > 100 µM | MOLT-4 46.2 µM | K562 35.9 µM | MDA-MB-231 > 100 µM | NCI/ADR-RES 66.2 µM | OVCAR-8 66.8 µM | HCC 2998 > 100 µM | EKVX 76.6 µM | NCI-H23 45.6 µM | MDA-MB-435 49.7 µM | OVCAR-5 > 100 µM | DU-145 45.7 µM | HL-60 26.3 µM | U-251 > 100 µM | UACC-62 51.2 µM | UO-31 > 100 µM | SK-MEL-28 > 100 µM

Cc1ccc(OCC2OC(n3cnc4c(N(C)C)nc(Br)nc43)CC2Oc2ccc(C)cc2)cc1 (stereo unspecified)
inactive: T47D > 100 µM | SW-620 > 100 µM | SK-OV-3 > 100 µM | K562 > 100 µM | MDA-MB-231 > 100 µM | NCI/ADR-RES > 100 µM | OVCAR-8 > 100 µM | HCC 2998 > 100 µM | EKVX > 100 µM | NCI-H23 > 100 µM | MDA-MB-435 > 100 µM | OVCAR-5 > 100 µM | DU-145 > 100 µM | HL-60 > 100 µM | U-251 > 100 µM | 786-0 > 100 µM | UACC-62 > 100 µM | UO-31 > 100 µM | SK-MEL-28 > 100 µM

CC1CC(=O)N2CCCNC2=C1C#N (stereo unspecified)
inactive: T47D > 100 µM | SW-620 > 100 µM | SK-OV-3 > 100 µM | MOLT-4 > 100 µM | K562 > 100 µM | MDA-MB-231 > 100 µM | NCI/ADR-RES > 100 µM | OVCAR-8 > 100 µM | HCC 2998 > 100 µM | EKVX > 100 µM | NCI-H23 > 100 µM | MDA-MB-435 > 100 µM | DU-145 > 100 µM | HL-60 > 10 µM | U-251 > 100 µM | 786-0 > 100 µM | UACC-62 > 100 µM | UO-31 > 100 µM | SK-MEL-28 > 100 µM

Cc1ccc(S(=O)(=O)N2CCSCCSCCN(S(=O)(=O)c3ccc(C)cc3)CCN(S(=O)(=O)c3ccc(C)cc3)CC2)cc1
inactive: T47D > 100 µM | SW-620 > 100 µM | SK-OV-3 > 100 µM | MOLT-4 > 100 µM | K562 > 100 µM | MDA-MB-231 > 100 µM | NCI/ADR-RES > 100 µM | OVCAR-8 > 100 µM | HCC 2998 > 100 µM | EKVX > 100 µM | NCI-H23 > 100 µM | MDA-MB-435 > 100 µM | OVCAR-5 > 100 µM | DU-145 > 100 µM | HL-60 > 100 µM | U-251 > 100 µM | 786-0 > 100 µM | UO-31 > 100 µM | SK-MEL-28 > 100 µM

COc1ccc(/C=C2/CSCC3=C2N=C(S)NC3c2ccc(OC)c(OC)c2OC)c(OC)c1OC (stereo unspecified)
inactive: T47D 43.4 µM | SW-620 27.7 µM | SK-OV-3 49.7 µM | MOLT-4 3.05 µM | K562 7.6 µM | MDA-MB-231 17.7 µM | NCI/ADR-RES 7.43 µM | OVCAR-8 7.52 µM | HCC 2998 31.3 µM | EKVX 51.3 µM | NCI-H23 18.9 µM | MDA-MB-435 7.82 µM | OVCAR-5 25.2 µM | DU-145 38.3 µM | HL-60 6.34 µM | U-251 7.48 µM | 786-0 13.8 µM | UACC-62 16.8 µM | SK-MEL-28 18.4 µM

COc1ccc(/C=C2\Sc3nnc(CNc4ccc(Cl)cc4)n3N=C2c2cc(F)c(Cl)cc2Cl)cc1OC
inactive: T47D 44.3 µM | SW-620 15.8 µM | SK-OV-3 > 100 µM | MOLT-4 10.9 µM | K562 19 µM | MDA-MB-231 > 100 µM | NCI/ADR-RES 17.9 µM | OVCAR-8 24.7 µM | HCC 2998 31 µM | EKVX > 100 µM | NCI-H23 28.1 µM | MDA-MB-435 27.2 µM | OVCAR-5 88.9 µM | DU-145 71.6 µM | HL-60 45.7 µM | U-251 > 100 µM | 786-0 24.5 µM | UO-31 56.9 µM | SK-MEL-28 > 100 µM

COc1c(/C=C/C=O)cc2c(c1OC)OCO2
inactive: T47D 23.3 µM | SW-620 51.2 µM | SK-OV-3 60.8 µM | MOLT-4 20.5 µM | MDA-MB-231 31.6 µM | NCI/ADR-RES 33.3 µM | OVCAR-8 33.6 µM | HCC 2998 29.4 µM | EKVX 55.3 µM | NCI-H23 30.4 µM | MDA-MB-435 49.3 µM | OVCAR-5 7.41 µM | DU-145 28.4 µM | HL-60 23.6 µM | U-251 23.2 µM | 786-0 54.1 µM | UACC-62 19.3 µM | UO-31 35.9 µM | SK-MEL-28 > 100 µM

CC(C)=CCc1c2c(c(O)c3c(=O)c4c(oc13)-c1ccc(O)cc1OC4C=C(C)C)C=CC(C)(C)O2 (stereo unspecified)
inactive: T47D 8.79 µM | SW-620 8.32 µM | SK-OV-3 18.5 µM | K562 8.65 µM | MDA-MB-231 14.2 µM | NCI/ADR-RES 16.9 µM | OVCAR-8 13.3 µM | HCC 2998 3.34 µM | EKVX 14.9 µM | NCI-H23 6.31 µM | MDA-MB-435 10.6 µM | OVCAR-5 20.2 µM | DU-145 14 µM | HL-60 15.2 µM | U-251 12.2 µM | 786-0 11.4 µM | UACC-62 13.7 µM | UO-31 18.3 µM | SK-MEL-28 14.6 µM

CCN(CC)CCOC(NC(C)=O)(c1ccccc1)c1ccccc1
inactive: T47D > 100 µM | SW-620 > 100 µM | SK-OV-3 > 100 µM | MOLT-4 > 100 µM | MDA-MB-231 > 100 µM | NCI/ADR-RES > 100 µM | OVCAR-8 > 100 µM | HCC 2998 > 100 µM | EKVX > 100 µM | NCI-H23 > 100 µM | MDA-MB-435 > 100 µM | OVCAR-5 > 100 µM | DU-145 > 100 µM | HL-60 > 100 µM | U-251 > 100 µM | 786-0 > 100 µM | UACC-62 > 100 µM | UO-31 > 100 µM | SK-MEL-28 > 100 µM
